These results are taken from patent publication US5034317A, “Enzyme controlled release system and organic conjugate reactant” (priority 1987, dated 1991).

Assay type in all cases: biochemical
For data set [1], the target named is Aspergillus oryzae β-galactosidase (Aspergillus oryzae, UniProt Q2UCU3). Nature of the data set: Enzymatic hydrolysis of conjugate reactants by Aspergillus oryzae β-galactosidase (release of displaceable ligand). The text has this: (§1) A major advantage provided by the organic conjugate compositions comprising the present invention is the selective ability to discriminate not only between different classes of enzymes, but also to distinguish the same enzyme obtained from different sources. […] Each of the individual, separately derived, beta-galactosidases were commercially obtained and empirically evaluated using the test protocol described previously in Example 6.
Aspergillus oryzae β-galactosidase, sequence (Q2UCU3 19-1005): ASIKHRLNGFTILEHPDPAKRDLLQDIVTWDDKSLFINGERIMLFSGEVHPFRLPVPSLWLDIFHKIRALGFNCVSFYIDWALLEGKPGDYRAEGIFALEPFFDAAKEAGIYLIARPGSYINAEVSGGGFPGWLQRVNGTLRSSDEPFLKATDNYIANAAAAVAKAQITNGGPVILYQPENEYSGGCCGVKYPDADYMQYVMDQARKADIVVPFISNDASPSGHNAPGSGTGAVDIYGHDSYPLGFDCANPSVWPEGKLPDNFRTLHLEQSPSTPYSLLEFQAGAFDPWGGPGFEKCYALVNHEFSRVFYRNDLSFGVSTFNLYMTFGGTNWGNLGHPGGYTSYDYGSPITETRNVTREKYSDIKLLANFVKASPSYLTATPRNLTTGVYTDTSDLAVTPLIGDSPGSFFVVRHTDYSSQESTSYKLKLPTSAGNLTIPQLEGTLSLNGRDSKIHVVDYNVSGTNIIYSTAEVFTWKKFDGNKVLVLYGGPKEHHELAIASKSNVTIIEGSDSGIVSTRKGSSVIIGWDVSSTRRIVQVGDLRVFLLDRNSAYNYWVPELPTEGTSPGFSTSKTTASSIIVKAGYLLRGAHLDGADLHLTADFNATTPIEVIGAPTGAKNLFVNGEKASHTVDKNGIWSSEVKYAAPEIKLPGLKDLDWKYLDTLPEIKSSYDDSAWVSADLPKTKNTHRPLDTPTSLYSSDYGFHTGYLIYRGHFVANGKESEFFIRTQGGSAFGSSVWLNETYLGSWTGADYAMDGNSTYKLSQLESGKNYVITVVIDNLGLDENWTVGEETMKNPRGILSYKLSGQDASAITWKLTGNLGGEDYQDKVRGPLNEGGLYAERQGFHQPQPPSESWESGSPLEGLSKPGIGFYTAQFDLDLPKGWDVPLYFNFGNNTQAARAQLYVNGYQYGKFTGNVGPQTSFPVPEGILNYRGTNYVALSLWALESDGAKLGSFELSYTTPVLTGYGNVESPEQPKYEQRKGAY

Data set [2] has as its target T1, beef liver β-galactosidase (Bos taurus, UniProt Q58D55).
T1 sequence (Q58D55 28-653): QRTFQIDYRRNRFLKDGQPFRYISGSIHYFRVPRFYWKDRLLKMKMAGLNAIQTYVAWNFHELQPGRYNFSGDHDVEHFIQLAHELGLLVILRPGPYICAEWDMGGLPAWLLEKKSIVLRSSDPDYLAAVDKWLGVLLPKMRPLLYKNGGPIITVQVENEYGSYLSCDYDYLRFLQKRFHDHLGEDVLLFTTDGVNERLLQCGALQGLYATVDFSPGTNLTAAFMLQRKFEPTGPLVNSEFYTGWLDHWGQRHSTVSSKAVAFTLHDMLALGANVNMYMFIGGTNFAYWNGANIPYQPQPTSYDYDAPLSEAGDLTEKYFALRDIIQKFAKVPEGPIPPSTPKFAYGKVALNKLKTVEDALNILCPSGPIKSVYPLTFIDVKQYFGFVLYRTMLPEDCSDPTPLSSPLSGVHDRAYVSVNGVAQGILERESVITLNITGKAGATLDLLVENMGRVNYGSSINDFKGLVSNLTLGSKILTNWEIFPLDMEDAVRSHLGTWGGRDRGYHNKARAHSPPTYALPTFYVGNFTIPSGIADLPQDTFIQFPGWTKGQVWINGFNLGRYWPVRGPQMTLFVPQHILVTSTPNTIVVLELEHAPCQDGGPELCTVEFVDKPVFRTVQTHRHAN
Nature of the data set: Enzymatic hydrolysis of conjugate reactants by beef liver β-galactosidase. The conditions noted are these: beef liver β-galactosidase 0.66 units; for Measured Rate of Reaction: 25° C., 10^-3 M.
From the text: as §1

The target of a further data set is E. coli β-galactosidase (Escherichia coli, UniProt P00722). As to the kind of experiment: Enzymatic hydrolysis of conjugate reactants by E. coli β-galactosidase. The conditions noted are these: 25° C., 10^-3 M, E. coli β-galactosidase 7.5 units, pH 7.0 (Table 6).
E. coli β-galactosidase, sequence (P00722 whole entry): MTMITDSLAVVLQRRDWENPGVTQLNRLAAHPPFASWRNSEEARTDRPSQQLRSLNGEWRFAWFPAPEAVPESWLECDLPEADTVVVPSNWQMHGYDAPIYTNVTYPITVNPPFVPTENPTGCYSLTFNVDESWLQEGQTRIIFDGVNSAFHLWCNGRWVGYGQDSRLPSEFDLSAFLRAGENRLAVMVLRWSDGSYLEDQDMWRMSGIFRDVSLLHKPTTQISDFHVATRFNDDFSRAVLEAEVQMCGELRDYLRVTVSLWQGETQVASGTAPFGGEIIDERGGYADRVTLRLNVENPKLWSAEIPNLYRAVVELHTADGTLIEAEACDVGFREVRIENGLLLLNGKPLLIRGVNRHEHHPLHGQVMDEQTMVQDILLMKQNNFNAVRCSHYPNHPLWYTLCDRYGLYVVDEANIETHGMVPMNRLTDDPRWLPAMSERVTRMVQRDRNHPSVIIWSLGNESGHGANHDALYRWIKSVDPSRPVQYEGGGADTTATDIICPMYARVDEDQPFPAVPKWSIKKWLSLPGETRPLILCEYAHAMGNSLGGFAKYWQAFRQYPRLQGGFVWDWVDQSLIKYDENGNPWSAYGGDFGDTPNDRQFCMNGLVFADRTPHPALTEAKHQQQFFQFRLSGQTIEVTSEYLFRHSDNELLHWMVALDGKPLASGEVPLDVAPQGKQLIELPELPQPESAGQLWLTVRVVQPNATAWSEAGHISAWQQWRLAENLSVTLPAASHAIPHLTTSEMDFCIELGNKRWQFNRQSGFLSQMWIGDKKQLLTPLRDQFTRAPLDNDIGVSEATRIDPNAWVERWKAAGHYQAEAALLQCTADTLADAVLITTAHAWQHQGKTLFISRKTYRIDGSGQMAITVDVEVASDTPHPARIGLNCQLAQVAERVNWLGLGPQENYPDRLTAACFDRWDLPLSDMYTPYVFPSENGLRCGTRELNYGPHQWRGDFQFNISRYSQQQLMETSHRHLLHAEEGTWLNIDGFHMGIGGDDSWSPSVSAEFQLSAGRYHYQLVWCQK
From the text: as §1

For data set [3], the target named is Aspergillus oryzae Beta galactosidase (Aspergillus oryzae, UniProt Q2UCU3). Nature of the data set: Spectrofluorimetric detection of 1.0×10^-12 M enzyme with conjugate substrate. As to the method:
Experimental conditions: Ten microliters of 1.0×10^-10 M Aspergillus oryzae Beta galactosidase (Cal Biochem) in 100 mM citrate phosphate, pH 5, with 0.05% w/v gelatin (Buffer A) was added to one milliliter of 1.6 mM compound 15 in Buffer A, yielding a final enzyme concentration of 1.0×10^-12 M. One half milliliter of this reaction mixture was monitored in a spectrofluorimeter in a two millimeter cuvette with instrument settings of 540 nm excitation, 580 emission and 5 nm slit widths. The signal was measured on a chart recorder at a speed of one centimeter per minute and at a sensitivity setting that gave fifteen percent deflection with 1.7×10^-7 M Sulforhodamine 101 in ethanol.

Setting [4] is: reactant 1.7 × 10^-5 M, temperature 36.5, 0.85 units Aspergillus oryzae β-galactosidase, pH 7.0 (Table 5).

Aspergillus oryzae Beta galactosidase, sequence (Q2UCU3 19-1005): as the sequence (Q2UCU3 19-1005) above

With `CCN(C(=O)Oc1ccc2nc3ccc(=O)cc-3oc2c1)c1cc(S(=O)(=O)N(C)C)ccc1O[C@@H]1O[C@H](CO)[C@H](O)[C@H](O)[C@H]1O` [Compound 8, 2-[N-ethyl-N-carbo (resorufinyl)]-4-dimeehylamino sulfonylphenyl-β-D-galactopyranoside], the “Measured Rate of Reaction” value is 0.0015 µmol/min in data set [1] (36.5° C., 1.7 × 10^-5 M, Asp. ory. β-galactosidase 0.85 units, pH 7.0 (Table 6)) and 0.0015 µmol/min in data set [1] (setting [4]). For the same molecule, the “Measured Rate of Reaction (in words: hydrolysis after 4 days)” value in data set [2] (36.5° C., 1.7 × 10^-5 M, pH 7.0, cell reads 'incomplete hydro-lysis after 4 days' (Table 6)) was “incomplete”.

On to `CCN(C(=O)Oc1ccc([N+](=O)[O-])cc1)c1cc(S(=O)(=O)N(C)C)ccc1O[C@@H]1O[C@H](CO)[C@H](O)[C@H](O)[C@H]1O` [Compound 6, 2-[N-ethyl N-carbo (p-nitrophenoxy)]-4-dimethylamino sulfonyl phenyl-β-D-galactopyranoside], for which the “Measured Rate of Reaction” value stood at 0.028 µmol/min in data set [1] (25° C., 10^-3 M, Asp. ory. β-galactosidase 0.5 units, pH 5.5 (Table 6)); 0.0091 µmol/min in data set [1] (25° C., 10^-3 M, Asp. ory. β-galactosidase 0.85 units, pH 7.0 (Table 6)); 0.0065 µmol/min in data set [1] (setting [4]); 0.028 µmol/min in data set [1] (reactant 10^-3 M, temperature 25, 0.5 units Aspergillus oryzae β-galactosidase, pH 5.5 (Table 5)); 0.009 µmol/min in data set [1] (reactant 10^-3 M, temperature 25, 0.85 units Aspergillus oryzae β-galactosidase, pH 7.0 (Table 5)); 0.066 µmol/min in data set [1] (reactant 10^-3 M, temperature 25, 1.0 units Aspergillus oryzae β-galactosidase, pH 5.5 (Table 5)). Moreover, the “Measured Rate of Reaction” value in data set [1] (reactant 10^-3 M, temperature 25, 4.2 units Aspergillus oryzae β-galactosidase, pH 7.0 (Table 5)) was determined as 0.039 µmol/min; in data set [2] (pH 5.5 (Table 6)), 0.0094 µmol/min; in data set [2] (pH 7.0 (Table 6)), 0.00075 µmol/min; on E. coli β-galactosidase, 0.00006 µmol/min.

`CCN(C(=O)Oc1ccc2nc3ccc(=O)cc-3oc2c1)c1cc(S(=O)(=O)N2CCN(C(=O)CCC(=O)O)CC2)ccc1O[C@@H]1O[C@H](CO)[C@H](O)[C@H](O)[C@H]1O` [Compound 15]: the “signal generated by the substrate solution alone (no enzyme)” value in data set [3] (1.6 mM substrate in Buffer A pH 5, without enzyme, fluorescence over time) is “No increase in the signal”. Further, the “increase in deflection (fluorescence signal) of the enzyme reaction mixture” value in data set [3] (1.6 mM substrate, 1.0×10^-12 M enzyme, 100 mM citrate phosphate pH 5 with 0.05% gelatin, ten minute interval, 540 nm excitation, 580 emission) is “one and one half percent increase in deflection”.
